Read-outs that look alike come from different tables or passages of the source.
Legend:
cortical neurons = assay: Neurite outgrowth in cortical neurons; format: cell-based, rat
Method: Cortical neurons were fixed using 2% paraformaldehyde for 5 min followed by 4% paraformaldehyde for 5 min. Cells were incubated in blocking solution (0.2% Triton-X+1.5% normal goat serum in PBS) followed by primary (anti-neuronal class III β-tubulin (TUJ1) (Covance Innovative Antibodies, Berkeley, Calif.) and secondary antibody (Alexa Fluor 488 goat anti-mouse) (Molecular Probes, Carlsbad, Calif.). Each step was performed at room temperature for 1 hr. Total neurite outgrowth for each condition was analyzed using the Neuronal Profiling Bioapplication on an ArrayScan HCS Reader (Cellomics, Pittsburgh, Pa.).
Briefly, cortical neuron cultures were prepared from embryonic day 15 (E15) rat embryos (Sprague-Dawley, Charles River Laboratories, Wilmington, Mass.). The embryos were collected, their brains were removed, and the cortices were dissected out in ice-cold phosphate-buffered saline (PBS) without Ca^2+ and Mg^2+. Dissected pieces of cortical tissue were pooled together and transferred to an enzymatic dissociation media containing 20 IU/ml papain in Earle's balanced salt solution (Worthington Biochemical, Freehold, N.J.) and incubated for 30 min at 37° C. After enzymatic dissociation, the papain solution was aspirated and the tissue mechanically triturated with a fire-polished Pasteur pipette in complete media [Neurobasal Medium with B-27 supplement (Gibco, Grand Island, N.Y.), 100 IU/ml penicillin, 100 μg/ml streptomycin, 3.3 μg/ml aphidicolin, 0.5 mM glutamate] containing 2,000 IU/ml DNase and 10-mg/ml ovomucoid protease inhibitor.

F-11 cells = assay: Neurite outgrowth of F-11 cells (neurofilament ELISA); format: cell-based, rat and mouse hybrid
Method: Cells were fixed with 4% paraformaldehyde for 30 min at 37° C. Nonspecific binding was blocked by incubating with PBS containing 0.3% Triton X-100 and 5% fetal bovine serum (FBS) for 45 min. […] After washing, a peroxidase-conjugated anti-mouse secondary antibody (1:1000) was applied for 2 h. After three washes, the peroxidase substrate K-BlueMax was added to the cultures and incubated for 10 min. Optical density was determined at 650 nm.

His6-tagged FKBP12 = His6-tagged FKBP12 (Homo sapiens, UniProt P62942); assay: [3H]-FK506 binding on Ni-chelated FLASH plate
Chain of His6-tagged FKBP12 (P62942 whole entry): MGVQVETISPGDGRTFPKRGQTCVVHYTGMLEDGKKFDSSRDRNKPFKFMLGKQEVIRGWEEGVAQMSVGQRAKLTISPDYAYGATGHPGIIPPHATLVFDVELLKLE
Method: Reactions were carried out in triplicate at 25° C. for 30 min. Kd were calculated using methods described by Carreras (Anal. Biochem. 298, 57-61 (2001)).

His6-CACNB1:TGG548TAA = molecular target: T1, His6-CACNB1:TGG548TAA (Homo sapiens, UniProt Q02641); assay: Protein fluorescent quenching; format: binding; details: compound 1 μM, protein 0-8 μM
T1 construct: His6 (N); made in house
T1 sequence (Q02641 1-547 limits assumed): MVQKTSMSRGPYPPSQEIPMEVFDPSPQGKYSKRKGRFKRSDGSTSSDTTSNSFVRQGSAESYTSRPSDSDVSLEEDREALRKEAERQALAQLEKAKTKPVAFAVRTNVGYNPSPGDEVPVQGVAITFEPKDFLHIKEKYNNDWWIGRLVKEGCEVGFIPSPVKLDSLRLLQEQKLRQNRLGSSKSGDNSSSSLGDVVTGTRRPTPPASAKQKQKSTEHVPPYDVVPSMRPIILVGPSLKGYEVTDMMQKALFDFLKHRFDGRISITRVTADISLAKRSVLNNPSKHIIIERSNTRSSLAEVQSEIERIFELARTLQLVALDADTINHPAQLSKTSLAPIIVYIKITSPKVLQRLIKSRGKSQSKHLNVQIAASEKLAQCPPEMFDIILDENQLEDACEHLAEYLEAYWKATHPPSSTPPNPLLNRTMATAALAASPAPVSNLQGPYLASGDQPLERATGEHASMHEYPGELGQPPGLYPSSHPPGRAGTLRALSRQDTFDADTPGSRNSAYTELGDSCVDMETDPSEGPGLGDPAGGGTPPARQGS
Description: (§1) The His6-CACNB1: […] were generated from pDEST17-CACNB1 using QuikChange site-directed mutagenesis kit (Stratagene, LaJolla, Calif.). The His6 tagged protein was purified on a Ni-NTA column (Qiagen, Valencia, Calif.). […] J. Biol. Chem. 281, 14961-14970 (2006).

[1] = molecular target: T2, FKBP52-rapamycin analogue I-Ca2+ channel β1 subunit complex (Mus musculus, UniProt P30416+Q8R3Z5); assay: Co-immunoprecipitation of complex from F11 cell lysate; format: binding, rat and mouse hybrid
T2 construct: endogenous in cells; host or cells: F11 cell lysate
T2 sequence (P30416 whole entry): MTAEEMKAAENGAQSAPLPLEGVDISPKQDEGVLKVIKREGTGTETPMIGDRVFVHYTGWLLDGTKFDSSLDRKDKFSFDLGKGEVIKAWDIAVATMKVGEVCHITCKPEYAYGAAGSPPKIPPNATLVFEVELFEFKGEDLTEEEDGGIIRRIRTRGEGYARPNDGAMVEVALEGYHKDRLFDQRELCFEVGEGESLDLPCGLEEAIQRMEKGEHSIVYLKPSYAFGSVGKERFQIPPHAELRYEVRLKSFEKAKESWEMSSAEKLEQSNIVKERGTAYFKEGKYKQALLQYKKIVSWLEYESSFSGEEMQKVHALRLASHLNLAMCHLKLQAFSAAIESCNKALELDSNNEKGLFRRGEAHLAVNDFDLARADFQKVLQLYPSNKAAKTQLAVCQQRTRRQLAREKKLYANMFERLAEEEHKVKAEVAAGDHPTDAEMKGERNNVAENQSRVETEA
T2 sequence (Q8R3Z5 1-479 isoform Q8R3Z5-3): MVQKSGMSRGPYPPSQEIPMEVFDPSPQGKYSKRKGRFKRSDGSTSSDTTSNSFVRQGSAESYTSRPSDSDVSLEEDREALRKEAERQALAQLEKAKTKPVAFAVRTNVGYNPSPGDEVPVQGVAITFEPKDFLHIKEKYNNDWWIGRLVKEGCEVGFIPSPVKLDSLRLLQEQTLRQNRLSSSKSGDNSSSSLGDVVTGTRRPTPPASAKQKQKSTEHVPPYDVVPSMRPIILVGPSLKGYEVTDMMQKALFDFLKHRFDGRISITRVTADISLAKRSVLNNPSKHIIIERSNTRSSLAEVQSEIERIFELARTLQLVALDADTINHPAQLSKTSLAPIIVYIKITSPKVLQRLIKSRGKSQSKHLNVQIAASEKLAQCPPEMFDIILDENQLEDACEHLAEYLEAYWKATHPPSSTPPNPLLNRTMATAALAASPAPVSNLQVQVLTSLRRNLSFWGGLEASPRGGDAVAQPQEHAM
Method: Anti-FKBP52 antibody was added at 1:200 dilution to each aliquot and incubated at 4° C. for 5 h. Protein A beads ([…]) were then added to precipitate the anti-FKBP52-antibody-associated complex. The proteins immunoprecipitated on the beads were washed with PBS buffer, separated on 4-20% SDS-PAGE gel, transferred to PVDF, and immunoblotted with anti-Ca^2+ channel β1 subunit antibody (1:500 dilution) to detect the β1 subunit.

Human CD4+ T cells = assay: Immunosuppression assay: IL-2 stimulated CD4+ T-cell proliferation; format: cell-based; details: up to 1 μM
Method: Human CD4^+ T cells were purified by negative selection from peripheral blood lymphocytes using RosetteSep as per manufacture's instructions (StemCell Technologies, Inc. Vancouver, British Columbia). Tosyl-activated magnetic microspheres (Dynal, Great Neck, N.Y.) were coated with anti-CD3 Ab (1 μg/10^7 microspheres), and anti-CD28Ab ([…]) as described in Blair et al. J. Immunol., 160:12, 1998. […] Protein-coated microspheres were added to purified CD4+T cells (2×10^6cells/mL, ratio 1 bead: 1 cell) and activated for 72 hours in RPMI, 10% fetal calf serum, 2 mM glutamine media. Cells were harvested, washed, and cultured overnight in fresh media and re-stimulated with IL-2 as described in Bennett et al., J. Immunol. 170:711, 2003. […] Seventy-two hours after culture re-stimulation, plates were pulsed with 1 μCi/well tritiated thymidine and incubated for a 6-16 hour period.

[2] = tested on: FKBP52, FKBP25 and FKBP12; assay: Affinity chromatography on Compound 2 matrix (SDS-PAGE); format: binding, human; details: protein retained on compound beads vs blank beads
CACNB1 = assay: as above; format: binding, human; details: protein retained on compound beads vs blank beads
Description: as §1

[3] = tested on: Ca2+ channels in cultured rat hippocampal neurons; assay: Whole-cell patch clamp recording of Ca2+ currents in hippocampal neurons; format: cell-based; details: 10 μM internal
Method: The whole-cell configuration of the patch-clamp technique was used to record calcium currents from the cells at room temperature using an EPC-9 amplifier (HEKA, Instrutech Corp.) with the acquisition and analysis program Pulse-PulseFit from HEKA (Lambrecht, Germany). Electrodes were fabricated using a P-87 puller (Sutter Instrument). […] The standard bath recording solution is Ca^2+ and Mg^2+ free HBSS (pH 7.4) containing 10 mM HEPES, 10 mM dextrose, and 4 mM BaCl2. Currents were filtered at 3 kHz, and the inward Ca^2+ currents were recorded from cells held at −90 mV with 10 mV depolarizing steps from −80 mV to 60 mV for 50 ms.

[4] = tested on: transient mid-cerebral artery occlusion model for ischemic stroke; details: cited from earlier work

SMILES: CO[C@H]1C[C@@H]2CC[C@@H](C)[C@@](O)(O2)C(=O)C(=O)N2CCCCC2C(=O)O[C@H]([C@H](C)C[C@@H]2CC[C@@H](O)[C@H](OC)C2)CC(=O)[C@H](C)/C=C(\C)[C@@H](O)[C@@H](OC)C(=O)[C@H](C)C[C@H](C)C2C=C[C@H](/C=C/1C)ON2c1ccccc1 (some centres unmarked) [Rapamycin analogue I, 9,27-dihydroxy-3-{2-[4-hydroxy-3-methoxycyclohexyl]-1-methylethyl}-10,21-dimethoxy-6,8,12,14,20,26-hexamethyl-37-phenyl-4,9,10,12,13,14,15,18,21,22,23,24,25,26,27,32,33,34,34a-nonadecahydro-3H-23,27-epoxy-18,15-(epoxyimino)pyrido[2,1-c][1,4]oxazacyclohentriacontine-1,5,11,28,29(6H, 31H)-pentone]
- neurite outgrowth in cortical neurons (cortical neurons): promote neurite outgrowth
- neurite outgrowth in F-11 cells (F-11 cells): promote neurite outgrowth
- neurofilament content, higher than 50 μM or no compound control (F-11 cells; 5 μM, 96 hrs): 4-5 fold
- Kd (His6-tagged FKBP12): 4.7 ± 0.4 nM
- protein fluorescent quenching (His6-CACNB1:TGG548TAA): linear dose response curve
- Ca2+ channel β1 subunit co-immunoprecipitated with FKBP52 ([1]; 5 μM): large amount
- Ca2+ channel β1 subunit co-immunoprecipitated with FKBP52 ([1]; 50 μM): reduced the amount of precipitated β1 subunit

SMILES: CO[C@H]1C[C@@H]2CC[C@@H](C)[C@@](O)(O2)C(=O)C(=O)N2CCCCC2C(=O)O[C@H]([C@H](C)C[C@@H]2CC[C@@H](O)[C@H](OC)C2)CC(=O)[C@H](C)/C=C(\C)[C@@H](O)[C@@H](OC)C(=O)[C@H](C)C[C@H](C)C2CC[C@H](/C=C/1C)ON2c1ccccc1 (some centres unmarked) [Rapamycin analogue II, 9,27-dihydroxy-3-{2-[4-hydroxy-3-methoxycyclohexyl]-1-methylethyl}-10,21-dimethoxy-6,8,12,14,20,26-hexamethyl-37-phenyl-4,9,10,12,13,14,15,16,17,18,21,22,23,24,25,26,27,32,33,34,34a-henicosahydro-3H-23,27-epoxy-18,15-(epoxyimino)pyrido[2,1-c][1,4]oxazacyclohentriacontine-1,5,11,28,29(6H, 31H)-pentone]
- inhibition of IL-2 stimulated CD4+ T-cell proliferation (Human CD4+ T cells): no detectable inhibition
- binding to FKBP52, FKBP25 and FKBP12 [2]: binds
- binding to CACNB1 (CACNB1): binds
- inhibition of Ca2+ current ([3]; N-type Ca2+ channels blocked, after 10 min): 74.5+/−8.8
- inhibition of the remaining Ca2+ current ([3]; both N- and L-type Ca2+ channels blocked): 21.3+/−4.4%
- reduction of infarct volume ([4]; 10 mg/kg): 24%
- reduction of infarct volume ([4]; 30 mg/kg): 23%

Reference: US20100196355A1, “Immunophilin Ligands and Methods for Modulating Immunophilin and Calcium Channel Activity” (Wyeth, priority 2007, published 2010)
